Source: patent US11091511B2, “Panaxdiol-type ginsenoside derivative, preparation method therefor and use thereof” (ARMY MEDICAL UNIVERSITY, priority 2016, dated 2021)
Marks after values point to notes of the source that are not given here.

How the values were obtained:
[1] = test system: RAW264.7 cells; experiment: RAW264.7 cell survival rate by CCK8 method; type: cell-based, mouse; conditions: compound 10 prnol/L, 0.1% DMSO, CCK8, x ± s, n = 3, normal saline control = 1
Method: In order to further verify the toxicities of the compounds prepared in Examples 1-30 of the present invention, the mouse macrophage cell line RAW264.7 was cultured, and the compounds prepared in Examples 1-30 of the invention were prepared to a concentration of […] using culture medium, wherein the solvent was normal saline, the co-solvent was dimethyl sulfoxide (DMSO, the final concentratoin was 0.1%), and a 0.1% DMSO saline control group was provided. The cell survival rate was determined by CCK8 method. The data were expressed as x±s. SPSS 10.0 line single-factor analysis of variance was performed among groups. The difference was significant when p<0.05.

[2] = test system: TNF-α; experiment: Local TNF-α level in the arteries of apoE-/- mice (Millipore liquid phase chip); type: in vivo, mouse; conditions: high-fat diet, intragastric 15 weeks, compounds 30 mg/(kg·d), simvastatin 10 mg/(kg·d), x ± s, n = 5, saline control 25.58 ± 6.44
Source text: (§1) The effects of the compounds prepared in Examples 1-30 of the present invention on the percentages of areas of atherosclerotic plaque formation to the area of the entire artery in apoE−/− mice with a high-fat diet and the levels of low-density lipoprotein cholesterol and the levels of high-density lipoprotein, the specific steps are as follows: 1. animals: 160 ten-week-old, healthy and clean-grade apoE−/− mice (purchased from Peking University Experimental Animal Center), males, weight: 22-25 g, were housed in separate cages in a sterile laminar feeding room and fed freely. The mice were fed by a high-fat diet (conventional feed+0.15% cholesterol+21% lard) for 25 weeks, the room temperature was kept at 24° C., relative humidity: 50%, illumination time 7:30-19:30. 2. Grouping, administration method: after 10 weeks of feeding, the animals were divided into the following 32 groups (n=5) by weight in a balanced and random manner, and killed 15 weeks after administration. Normal saline control group: normal saline, intragastric administration. Positive control group: simvastatin 10 mg/(kg·d), intragastric administration. The compound groups prepared in Examples 1-30 of the present invention (30 groups in total): each was intragastric administered 30 mg/(kg·d). (3) Determination of TNF-α level: Millipore liquid phase chip method was used for the determination (Mcytomag-70K-3, Mouse Cytokine/Chemokine Magnetic Bead Panel). Data were expressed as x±s, and SPSS 10.0 line single-factor analysis of variance was performed among groups, a significant difference was indicated when p<0.05.

[3] = test system: RAW264.7 cell-derived foam cells; experiment: Formation of RAW264.7 cell-derived foam cells (ox-LDL, oil red O, absorbance 490 nm); type: cell-based, mouse; conditions: 48 hours, model group = 100%, x ± s, n = 3
Method: The effects of the compounds prepared in Examples 1-30 of the present invention on the formation of RAW264.7 cell-derived foam cells, the specific steps are as follows:
1. Cell culture and foam cell model establishment:
RAW264.7 cells were cultured in DMEM culture medium with high glucose level (GIBCO) to a cell concentration of 1×10^6, planted in a 6-well plate, and 60 mg/L of ox-LDL (oxidized modified low-density lipoprotein, Peking Union Medical College) was added, foam cells were obtained after 48 hours of incubation.
2. Grouping and index detection:
The obtained foam cells were divided into 61 groups, 3 well plates were included in one group. After the treatment by adding the drugs (100 μL/well) for 48 hours, the medium was discarded, and after oil red 0 staining, the excess amount of oil red 0 was washed away. The cells were dissolved in isopropanol and the absorbance values were measured at 490 nm. The OD value of the model group was 100%, and the OD value of each group corrected by the number of cells was compared with the model group to obtain the ratio of intracellular lipid content. The larger the value, the more intracellular lipids, the higher the degree of formation of foam cells.
Normal saline control group: normal saline
Low dose groups of the compounds prepared in Examples 1-30 of the present invention:
10 μmol/L (solvents were normal saline).
High dose groups of compounds prepared in Examples 1-30 of the present invention: 30 μmol/L (solvents were normal saline).
Data were expressed as x±s, and SPSS 10.0 line single-factor analysis of variance was performed amoung groups, a significant difference was indicated when p<0.05.

[4] = test system: apoE−/− mice; experiment: Atherosclerotic plaque area to total aortic area in apoE-/- mice on high-fat diet (Sudan IV staining); type: in vivo, mouse; conditions: intragastric 15 weeks, compounds 30 mg/(kg·d), simvastatin 10 mg/(kg·d), x ± s, n = 5, saline control 14.67 ± 3.58
Source text: as §1, with “(1) Analysis” for “(3) Determination”, “the area of atherosclerotic plaque and its percentage to total area: after the animals were killed, the aortas were separated, from the roots of the aortas to the terminal bifurcations of the abdominal aortas. After formalin fixation, the aortas were stained with Sudan IV, the red stained parts were the areas of atherosclerotic lesions. The percentage of the area of the lesion area to total area” for “TNF-α level: Millipore liquid phase chip method”, “calculated using Image Pro Plus 5.0 software.” for “used for the determination (Mcytomag-70K-3, Mouse Cytokine/Chemokine Magnetic Bead Panel).”

[5] = test system: apoE−/− mice; experiment: Blood lipids (LDL-C, HDL-C) in apoE-/- mice on high-fat diet; type: in vivo, mouse; conditions: apoE-/- mice serum, intragastric 15 weeks, compounds 30 mg/(kg·d), simvastatin 10 mg/(kg·d), x ± s; for HDL-C: n = 5, saline control 3.74 ± 0.62; for LDL-C: n = 5, saline control 7.33 ± 1.03
Source text: The effects of the compounds prepared in Examples 1-30 of the present invention on the percentages of areas of atherosclerotic plaque formation to the area of the entire artery in apoE−/− mice with a high-fat diet and the levels of low-density lipoprotein cholesterol and the levels of high-density lipoprotein, the specific steps are as follows:
1. animals: 160 ten-week-old, healthy and clean-grade apoE−/− mice (purchased from Peking University Experimental Animal Center), males, weight: 22-25 g, were housed in separate cages in a sterile laminar feeding room and fed freely. The mice were fed by a high-fat diet (conventional feed+0.15% cholesterol+21% lard) for 25 weeks, the room temperature was kept at 24° C., relative humidity: 50%, illumination time 7:30-19:30.
2. Grouping, administration method:
after 10 weeks of feeding, the animals were divided into the following 32 groups (n=5) by weight in a balanced and random manner, and killed 15 weeks after administration.
Normal saline control group: normal saline, intragastric administration.
Positive control group: simvastatin 10 mg/(kg·d), intragastric administration.
The compound groups prepared in Examples 1-30 of the present invention (30 groups in total): each was intragastric administered 30 mg/(kg·d).
(2) Determination of the levels of total cholesterol (TC), low-density cholesterol lipoprotein (LDL-C) and high-density lipoprotein cholesterol (HDL-C): using ROCHE 7060 automatic biochemical analyzer for the determination.
Data were expressed as x±s, and SPSS 10.0 line single-factor analysis of variance was performed among groups, a significant difference was indicated when p<0.05.

| Compound | Cell Survival Rate [1] | TNF-α level (ng/g) [2] | Foam cell formation (%) ([3]; dose 10 μmol/L) | Foam cell formation (%) ([3]; dose 30 μmol/L) | Plaque area/total aorta area (%) [4] | HDL-C [5] | LDL-C [5] |
| --- | --- | --- | --- | --- | --- | --- | --- |
| COC(=O)[C@H](CC(C)C)NCCC[C@](C)(O[C@H]1O[C@H](COC(C)=O)[C@@H](OC(C)=O)[C@H](OC(C)=O)[C@H]1OC(C)=O)C1CC[C@]2(C)[C@@H]1C(OC(C)=O)CC1[C@@]3(C)CC[C@H](OC(C)=O)C(C)(C)C3CC[C@]12C (stereo partly shown) [Compound 4] | 0.84 ± 0.02 | 11.04 ± 3.68 ^a ng/g | 74 ± 15 ^a % | 54 ± 12 ^a % | 9.52 ± 4.21 ^a % | 5.48 ± 0.61 ^a mmol/L | 4.62 ± 1.58 ^a mmol/L |
| CC(=O)OC[C@H]1O[C@H](O[C@@](C)(CCC2OC2(C)C)C2CC[C@]3(C)[C@@H]2C(OC(C)=O)CC2[C@@]4(C)CC[C@H](OC(C)=O)C(C)(C)C4CC[C@]23C)[C@H](OC(C)=O)[C@@H](OC(C)=O)[C@@H]1OC(C)=O (stereo partly shown) [Compound 2] | 0.51 ± 0.08 ^a | 13.24 ± 3.71 ^a ng/g | 70 ± 25 ^a % | 64 ± 19% | 8.27 ± 2.54 ^a % | 5.47 ± 0.91 ^a mmol/L | 5.56 ± 1.24 ^a mmol/L |
| COC(=O)[C@@H](Cc1ccc(O)cc1)NCCC[C@](C)(OC(C)=O)C1CC[C@]2(C)[C@@H]1C(OC(C)=O)CC1[C@@]3(C)CC[C@H](OC(C)=O)C(C)(C)C3CC[C@]12C (stereo partly shown) [Compound 28] | 0.89 ± 0.04 | 11.84 ± 2.91 ^a ng/g | 63 ± 11 ^a % | 45 ± 16 ^a % | 8.18 ± 2.89 ^a % | 5.55 ± 0.63 ^a mmol/L | 4.59 ± 1.62 ^a mmol/L |
| COC(=O)[C@H](CO)NCCC[C@](C)(O[C@H]1O[C@H](COC(C)=O)[C@@H](OC(C)=O)[C@H](OC(C)=O)[C@H]1OC(C)=O)C1CC[C@]2(C)[C@@H]1C(OC(C)=O)CC1[C@@]3(C)CC[C@H](OC(C)=O)C(C)(C)C3CC[C@]12C (stereo partly shown) [Compound 7] | 0.86 ± 0.01 | 17.77 ± 4.63 ^a ng/g | 83 ± 13% | 71 ± 13 ^a % | 11.02 ± 2.71 ^a % | 4.52 ± 0.46 ^a mmol/L | 5.50 ± 1.82 ^a mmol/L |
| COC(=O)[C@H](CC1CNc2ccccc21)NCCC[C@](C)(O[C@H]1O[C@H](COC(C)=O)[C@@H](OC(C)=O)[C@H](OC(C)=O)[C@H]1OC(C)=O)C1CC[C@]2(C)[C@@H]1C(OC(C)=O)CC1[C@@]3(C)CC[C@H](OC(C)=O)C(C)(C)C3CC[C@]12C (stereo partly shown) [Compound 15] | 0.88 ± 0.04 | 16.07 ± 3.67 ^a ng/g | 68 ± 12 ^a % | 56 ± 22 ^a % | 10.22 ± 2.19 ^a % | 4.12 ± 0.82 ^a mmol/L | 6.54 ± 1.36 mmol/L |
| COC(=O)[C@H](NCCC[C@](C)(OC(C)=O)C1CC[C@]2(C)[C@@H]1C(OC(C)=O)CC1[C@@]3(C)CC[C@H](OC(C)=O)C(C)(C)C3CC[C@]12C)[C@@H](C)O (stereo partly shown) [Compound 21] | 0.94 ± 0.17 | 10.76 ± 3.54 ^a ng/g | 65 ± 15 ^a % | 47 ± 13 ^a % | 8.28 ± 3.29 ^a % | 5.82 ± 0.95 ^a mmol/L | 4.31 ± 1.84 ^a mmol/L |
| CCC(C)(C)C(=O)O[C@H]1C[C@@H](C)C=C2C=C[C@H](C)[C@H](CC[C@@H]3C[C@@H](O)CC(=O)O3)[C@H]21 [Simvastatin, simvastatin, reference compound] | – | 14.84 ± 3.22 ^a ng/g | – | – | 7.95 ± 2.03 ^a % | 3.69 ± 0.72 ^a mmol/L | 2.75 ± 1.89 ^a mmol/L |
